For data set [1], the target named is opiate receptor. The data set can be described thus: opiate receptor assay of Pert et al. Type of data set: binding. An excerpt:
(Raven Press, New York, N.Y.), at pp. 33-43. […] Int. Pharmacodyn.

A short description of data set [2]: induced Straub tail method (antagonist activity). Conditions: for Antagonism (μmol/kg) Straub Tail: in vivo.
Data set [3] is described as follows: reversal of morphine-induced analgesia in the tail flick assay. Conditions: reversal of analgesia induced by morphine. For orientation: In hot-plate and tail-flick tests a longer latency is read as antinociception.
For data set [4], the target named is T1, μ receptor (Homo sapiens, UniProt P35372). The data set can be described thus: biochemical. It is filed as biochemical.
For data set [5], the target named is T2, δ receptor (Homo sapiens, UniProt P41143).
T2 construct: expressed in transfected cells; host or cells: CHO cells
The data set can be described thus: biochemical. It is filed as biochemical.

Data set [6] has as its target T3, κ receptor (Homo sapiens, UniProt P41145).
T3 construct: expressed in transfected cells; host or cells: CHO cells
The data set can be described thus: biochemical. It is filed as biochemical.

The target of data set [7] is T1, μ receptor. The data set can be described thus: biochemical. It is filed as binding.
Data set [8] concerns the target T2, δ receptor. The data set can be described thus: biochemical. It is filed as binding.
The target of data set [9] is T3, κ receptor. The data set can be described thus: biochemical. It is filed as binding.
Data set [10] addresses T1, μ receptor. The data set can be described thus: pA2 analysis of antagonist activity against DAMGO dose response curve. It is filed as biochemical.
The conditions of data set [11]: in animals; cited from earlier work.
The nature of data set [12]: mouse jump test (physical dependence). The conditions noted are these: 30 min after 100 mg/kg naloxone on day 4; test compound ip days 1-3. It is filed as in vivo. As to the method: Antagonist activity, considered a measure of nonaddictiveness, was measured by the opiate receptor assay of Pert et al. (1974) Mol. Pharmacol. 10:868. Antagonist activity was also measured using the induced Straub tail method as described by DeGraw et al. (1978) J. Med Chem. 21:415, and Blumberg et al. (1973) Advances in Chemical Psychopharmacology, Vol. 8, M. Braudy et al. eds. (Raven Press, New York, N.Y.), at pp. 33-43. A direct and simple assay measuring physical dependence is the mouse jump test described by Saelens et al. (1971) Arch. Int. Pharmacodyn. 190:213.
Physical dependence, a more direct measure of non-addictive properties than antagonist activity, was evaluated using the mouse jump test. Mice were injected intraperitoneally 5 times on day 1 with increasing doses of test compound ranging from 8-100 mg/kg body weight. On days 2 and 3 the mice were given 100 mg/kg 4 times. On day 4 all mice received 100 mg/kg of the antagonist naloxone in a single dose. The mice were then caged for 30 min, and a record was made of the number jumping during this time.

The mark [13] stands for this setting: +NaCl, read-out: Opiate Receptor Inhibition (IC50, nM) +NaCl.
[14] abbreviates: −NaCl, read-out: Opiate Receptor Inhibition (IC50, nM) −NaCl.

Structures can show the parent of a compound that is named as a salt. Where two headings read alike, the source gives them in different places. A value given as a limit tells only on which side of the number the result lay.

T3 sequence (P41145 whole entry): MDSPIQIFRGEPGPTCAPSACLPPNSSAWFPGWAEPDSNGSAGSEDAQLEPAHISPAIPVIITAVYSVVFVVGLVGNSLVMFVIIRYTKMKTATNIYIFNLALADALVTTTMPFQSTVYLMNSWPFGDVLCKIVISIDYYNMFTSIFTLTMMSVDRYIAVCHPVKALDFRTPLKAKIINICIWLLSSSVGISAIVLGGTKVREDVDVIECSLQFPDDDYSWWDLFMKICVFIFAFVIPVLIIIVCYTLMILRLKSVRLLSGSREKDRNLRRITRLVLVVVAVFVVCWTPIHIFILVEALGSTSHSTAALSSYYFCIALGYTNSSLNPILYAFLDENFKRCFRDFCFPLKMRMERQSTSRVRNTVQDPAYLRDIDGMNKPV
T2 sequence (P41143 whole entry): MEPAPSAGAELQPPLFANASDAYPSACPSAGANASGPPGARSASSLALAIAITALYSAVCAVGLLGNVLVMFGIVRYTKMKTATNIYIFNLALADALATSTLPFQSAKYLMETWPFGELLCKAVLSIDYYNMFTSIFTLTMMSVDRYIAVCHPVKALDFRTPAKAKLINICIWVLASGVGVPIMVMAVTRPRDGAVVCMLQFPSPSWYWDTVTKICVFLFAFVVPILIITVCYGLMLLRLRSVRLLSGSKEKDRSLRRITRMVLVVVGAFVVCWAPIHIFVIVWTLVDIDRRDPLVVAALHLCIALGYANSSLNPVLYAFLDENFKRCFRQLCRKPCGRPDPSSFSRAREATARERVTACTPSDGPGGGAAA
T1 sequence (P35372 whole entry): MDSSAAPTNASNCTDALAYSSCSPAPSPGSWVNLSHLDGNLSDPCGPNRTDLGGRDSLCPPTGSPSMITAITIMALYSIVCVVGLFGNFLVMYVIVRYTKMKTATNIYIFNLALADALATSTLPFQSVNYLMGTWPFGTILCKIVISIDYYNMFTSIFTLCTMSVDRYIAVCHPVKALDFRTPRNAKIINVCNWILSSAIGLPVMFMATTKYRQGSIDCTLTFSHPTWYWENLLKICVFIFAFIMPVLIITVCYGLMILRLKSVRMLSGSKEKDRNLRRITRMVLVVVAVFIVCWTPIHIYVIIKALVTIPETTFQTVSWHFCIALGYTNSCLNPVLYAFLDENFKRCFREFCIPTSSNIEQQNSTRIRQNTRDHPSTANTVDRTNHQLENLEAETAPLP

For orientation: melting point means the temperature, or range, at which the solid turns liquid. Regarding `CC(C1CC1)N1CCC23c4c5ccc(O)c4OC2C(O)C=CC3C1C5` (mixture of isomers) (as salt: salt) [N-α-methylcyclopropylmethyl-normorphine (mixture)] [N-[(1R,S)-1-Cyclopropylethyl]-Normorphine], the melting point was in the range of 248 to 250 °C.
The IC50 is the concentration needed to halve the response being measured. On to `CC(C1CC1)N1CCC23c4c5ccc(O)c4OC2C(O)C=CC3C1C5` (mixture of isomers) [N-α-methylcyclopropylmethyl-normorphine (mixture)] [N-[(1R,S)-1-Cyclopropylethyl]-Normorphine], for which the IC50 in data set [1] (setting [13]) turned out to be 6 nM; in data set [1] (setting [14]), 3 nM. For the same compound, the “antagonist potency relative to nalorphine” value in data set [2] (Straub tail method) is on record as “about one-fourth”. Moreover, in data set [2], the “Antagonism (μmol/kg) Straub Tail” value came out at 4.5 µmol/kg.
Take `CC(C1CC1)N1CCC23c4c5ccc(O)c4OC2C(O)C=CC3C1C5` (single isomer, unassigned; diastereomer b) [N-α-methylcyclopropylmethyl-normorphine (S isomer), N-methylcyclopropylmethyl-normorphine (diastereomer B)]: the melting point was in the range of 209 to 210 °C. The IC50 in data set [1] (setting [14]) came out at 0.23 nM. Moreover, the “Antagonism (μmol/kg) Tail Flick” value in [3] was more than 213 µmol/kg.
As usually defined, the EC50 is the concentration at which the effect is half-maximal. As for `C[C@H]1[C@H]2Cc3ccc(O)cc3[C@]1(C)CCN2CC1CC1` [Cyclazocine, reference compound], the “μ % Stim” value in [4] is given as 33 ± 18%. Also, in data set [5], the EC50 amounted to 2.9 ± 1.9 nM and the “δ % Stim” value is recorded as 82 ± 9%. In [6], a half-maximal response (EC50) required 0.8 ± 0.2 nM and the “κ % Stim” value was 80%.
In the case of `C[C@@H](NC(=O)[C@@H](N)Cc1ccc(O)cc1)C(=O)NCC(=O)N(C)[C@@H](Cc1ccccc1)C(=O)NCCO` [DAMGO, [D-Ala^2, NMePhe^4, Gly^5-ol]-enkephalin], the “κ % Stim” value in [6] is listed as 62%.
Consider `CCC(C)N1CCC23c4c5ccc(O)c4OC2C(O)C=CC3C1C5` [N-sec-butyl normorphine (R), reference compound], for which the results for the IC50 in data set [1] (setting [13]) and in [1] (setting [14]) were 110 nM and 60 nM, respectively. Also, the “Antagonism (μmol/kg) Straub Tail” value in data set [2] worked out at 16.2 µmol/kg.
For the compound `CCC(C)N1CCC23c4c5ccc(O)c4OC2C(O)C=CC3C1C5` [N-sec-butyl normorphine (S), reference compound], the IC50 in [1] (setting [13]) was found to be 62 nM; in data set [1] (setting [14]), 28 nM. Besides, the “Antagonism (μmol/kg) Straub Tail” value in data set [2] was determined as 7.4 µmol/kg.
Usually Ki stands for a dissociation constant, usually derived from enzyme kinetics or from competition with a known ligand. For orientation: Kb means the equilibrium dissociation constant of an antagonist, usually derived from a functional assay. What is called pA2 is a measure of antagonist potency on a negative log scale. A lower pA2 goes with a weaker antagonist. As to `C[C@H](C1CC1)N1CC[C@]23c4c5ccc(O)c4O[C@H]2[C@@H](O)C=C[C@H]3[C@H]1C5` [compound 1, N-[(1R)-1-cyclopropylethyl]-normorphine], in [1] (relative to N-sec-butyl-normorphine), the “affinity in the opiate assay relative to N-sec-butyl-normorphine” value is on record as “about 122 times”. Also, the “affinity in the opiate assay relative to morphine” value in data set [1] (relative to morphine) is given as “over 43 times”. For the same compound, in data set [1] (setting [14]), the IC50 was determined as 7 nM. For the same compound, the affinity in data set [7], expressed as Ki, was 0.35 ± 0.06 nM. In data set [8], the affinity, expressed as Ki, was 3.97 ± 0.98 nM. The compound also gave a Ki in data set [9] of 0.43 ± 0.11 nM. In [4], the EC50 is more than 10 µM and the “functional character at the μ receptor” value is listed as “pure antagonist”. Further, in [5], the midpoint of the response, the EC50, lay at 39.6 ± 6.3 nM; the “functional character at δ” value is listed as “partial agonist”; the “δ % Stim” value is 22 ± 6%. In data set [6], the EC50 was 15.2 ± 2.5 nM, the “functional character at κ” value is on record as “partial agonist” and the “κ % Stim” value amounted to 63 ± 1%. The compound also returned a Kb in [10] of 1.43 ± 0.16 nM. In data set [10] (n=6), this compound came in with a Slope of −1.04 and a pA2 of 8.84±0.06. For the same compound, in data set [11], the respiratory depression entry is recorded as “free of respiratory depression” and the therapeutic index entry is “high therapeutic index”. Further, the “Antagonism (μmol/kg) Tail Flick” value in data set [3] was more than 213 µmol/kg.
`CN1CC[C@]23c4c5ccc(O)c4O[C@H]2[C@@H](O)C=C[C@H]3[C@H]1C5` [morphine]: in data set [12], the “number of mice jumping” value is given as 10/10. Besides, the “Antagonism (μmol/kg) Straub Tail” value in [2] was 1 µmol/kg. Also, in data set [3], the “Antagonism (μmol/kg) Tail Flick” value amounted to 2 µmol/kg.
As to `C=CCN1CC[C@]23c4c5ccc(O)c4O[C@H]2[C@@H](O)C=C[C@H]3[C@H]1C5` [nalorphine, reference compound], the IC50 in data set [1] (setting [13]) was 6 nM; in data set [1] (setting [14]) it was 2 nM. Besides, the “Antagonism (μmol/kg) Tail Flick” value in data set [3] came out at 2.04 µmol/kg.
Turning to (−)SKF 10,047, the “κ % Stim” value in data set [6] is 49 ± 13%. In addition, the EC50 in data set [6] (read-out: κ EC50) turned out to be 5.38 ± 2.3 nM.
“[D-Pen^2,D-Pen^5]-enkephalin [DPDPE, reference compound]”: the “κ % Stim” value in data set [6] is 77%.
